Experimental data published in patent publication EP3878441B1, “ALOE EMODIN AND ESTER DERIVATIVES THEREOF FOR TREATING SSTR2 AND/OR SSTR5 OVEREXPRESSING CANCERS” (Pecere, Teresa, priority 2020, dated 2021).

Columns and labels:
Sstr5 gene = experiment: Real-time PCR, sstr5 mRNA gene expression in IMR5 cells; assay type: cell-based, human; conditions: AE 50µM, SST14 10µM, 5,30,60,120 min (fig.1B)
Experimental: (§1) Real-time PCR analyses were carried out to quantify expression of the selected sstrs genes in IMR5, DMS114, and MRC5 cells. Total RNA was isolated using the Qiagen RNeasy Mini Kit in accordance with the manufacturer's instructions. cDNA synthesis were performed using GeneAmp® RNA PCR Core Kit (Roche, New Jersey, U.S.A.). The expression levels of sstrs mRNA were evaluated by qualitative RT-PCR using the specific primers.
(§2) Relative quantitative PCR (qPCR) was carried out in 25 µl final volume utilizing 3 µl of cDNA, 0.2 µM of each specific primers, using SYBRgreen reagents according to the manufacturer's instructions. PCR reactions comprised 40 cycles after an initial denaturation step (95°C, 10 min) according to the parameters: denaturation at 95°C, 15 sec and annealing/extension at 60°C, 1 min, in an ABI PRISM 7700 Sequence Detection system. To normalize the RNA amount of the extracted samples, real-time PCR analysis of the human GAPDH cDNA was carried out. Moreover, we optimized the method for relative quantification with sequence-specific DNA probes for sstr2 and sstr5 genes TaqMan reagents using kit TaqMan Gene Expression Assays according to the manufacturer's instructions (Applied Biosystem, Milan, Italy). The relative quantification of a target template in the samples was evaluated using the 2^-ΔΔCT method. All experiments were conducted in triplicate.

sstr2 gene [1] = experiment: Real-time PCR, sstr2 mRNA gene expression in IMR5 cells; assay type: cell-based, human; conditions: SST14 10µM, 5,30,60,120 min (fig.1B)
Experimental: as §1, §2

sstr2 gene [2] = experiment: Real-time PCR, sstr2 mRNA gene expression in MRC5 cells; assay type: cell-based, human; conditions: AE 50µM, SST14 10µM, 5,30,60,120 min (fig.1B)
Experimental: as §1, §2

[3] = state of the art statement; cited from earlier work

Substance: SST14: somatostatin peptide containing 14 amino acids; natural ligand of somatostatin receptors
- Sstr5 gene expression (Sstr5 gene): up-regulated
- sstr2 gene expression (sstr2 gene [1]): up-regulated
- sstr2 gene expression (sstr2 gene [2]): significantly upregulated
- plasma half-life [3]: < 3 min
